{"source": "PubChem BioAssay AID180", "about": "(DTP/NCI, 2004)", "tested_on": "BDF1 mice, Adenocarcinoma 755 s.c., tumor weight T/C", "test": "NCI In Vivo Anticancer Drug Screen. Data for tumor model Adenocarcinoma 755 (subcutaneous) in B6D2F1 (BDF1) mice", "details": "endpoint: mean tumor weight, higher = larger tumour", "description": "The antitumor activity of compounds was measured in mice bearing transplantable tumors. Survival or tumor size were measured and the results are expressed as the measurement made in the treated group (T) divided by the measurement made in the vehicle treated control group (C). The tumor model used in this assay is Adenocarcinoma 755 (subcutaneous) in B6D2F1 (BDF1) mice", "key": {"[1]": {"details": "dose: 31.0 mg/kg/injection, schedule: Q01DX011 (ip), vehicle: methylcellulose (MC)"}, "[2]": {"details": "dose: 62.0 mg/kg/injection, schedule: Q01DX011 (ip), vehicle: methylcellulose (MC)"}, "[3]": {"details": "dose: 125.0 mg/kg/injection, schedule: Q01DX011 (ip), vehicle: methylcellulose (MC)"}, "[4]": {"details": "dose: 12.5 mg/kg/injection, schedule: Q01DX011 (ip), vehicle: methylcellulose (MC)"}, "[5]": {"details": "dose: 25.0 mg/kg/injection, schedule: Q01DX011 (ip), vehicle: methylcellulose (MC)"}}, "note": "Where “and” joins values, the source holds several entries; their conditions need not be identical. Equal entries are not always repeated."}
{"smiles": "CS(=O)(=O)OCCC(=O)N1CN(C(=O)CCOS(C)(=O)=O)CN(C(=O)CCOS(C)(=O)=O)C1", "values": [{"measurement": "T/C", "setting": "dose: 28.0 mg/kg/injection, schedule: Q01DX011 (ip), vehicle: methylcellulose (MC)", "result": "115 % of control"}, {"measurement": "T/C", "setting": "dose: 57.0 mg/kg/injection, schedule: Q01DX011 (ip), vehicle: methylcellulose (MC)", "result": "110 % of control"}, {"measurement": "T/C", "setting": "dose: 225.0 mg/kg/injection, schedule: Q01DX011 (ip), vehicle: methylcellulose (MC)", "result": "81 % of control"}]}
{"smiles": "O=S1(=O)CCCO1", "values": [{"measurement": "T/C", "setting": "dose: 80.0 mg/kg/injection, schedule: Q01DX011 (ip), vehicle: carboxymethylcellulose (CMC)", "result": "32 % of control and 33 % of control"}]}
{"smiles": "O=C(Nc1ccc([N+](=O)[O-])cc1)Nc1ccc([N+](=O)[O-])cc1", "note": "(tested in a mixture with another compound)", "values": [{"measurement": "T/C", "setting": "dose: 175.0 mg/kg/injection, schedule: Q01DX011 (ip), vehicle: methylcellulose (MC)", "result": "57 % of control and 72 % of control"}, {"measurement": "T/C", "setting": "dose: 500.0 mg/kg/injection, schedule: Q01DX011 (ip), vehicle: methylcellulose (MC)", "result": "27 % of control and 45 % of control"}]}
{"smiles": "Cn1cnc2c(SCc3ccccc3)ncnc21", "values": [{"measurement": "T/C", "setting": "dose: 63.0 mg/kg/injection, schedule: Q01DX011 (ip), vehicle: carboxymethylcellulose (CMC)", "result": "3 % of control"}, {"measurement": "T/C", "setting": "dose: 126.0 mg/kg/injection, schedule: Q01DX011 (ip), vehicle: carboxymethylcellulose (CMC)", "result": "1 % of control"}, {"measurement": "T/C", "setting": "dose: 252.0 mg/kg/injection, schedule: Q01DX011 (ip), vehicle: carboxymethylcellulose (CMC)", "result": "1 % of control"}]}
{"smiles": "CCOP(=O)(OCC)OCC1OC(n2cnc3c(=S)nc[nH]c32)C(O)C1O", "note": "(centres undefined)", "values": [{"measurement": "T/C", "setting": "dose: 4.0 mg/kg/injection, schedule: Q01DX011 (ip), vehicle: methylcellulose (MC)", "result": "50 % of control"}, {"measurement": "T/C", "setting": "dose: 8.0 mg/kg/injection, schedule: Q01DX011 (ip), vehicle: methylcellulose (MC)", "result": "49 % of control"}, {"measurement": "T/C", "setting": "dose: 16.0 mg/kg/injection, schedule: Q01DX011 (ip), vehicle: methylcellulose (MC)", "result": "56 % of control"}, {"measurement": "T/C", "setting": "[1]", "result": "33 % of control"}, {"measurement": "T/C", "setting": "[2]", "result": "46 % of control"}, {"measurement": "T/C", "setting": "[3]", "result": "7 % of control"}]}
{"smiles": "CC(C)CN1CC(C)C(=O)N(c2ccccc2)C1=O", "note": "(centres undefined)", "values": [{"measurement": "T/C", "setting": "dose: 15.0 mg/kg/injection, schedule: Q01DX011 (ip), vehicle: methylcellulose (MC)", "result": "61 % of control"}, {"measurement": "T/C", "setting": "[1]", "result": "66 % of control"}, {"measurement": "T/C", "setting": "[2]", "result": "73 % of control"}, {"measurement": "T/C", "setting": "[3]", "result": "75 % of control"}, {"measurement": "T/C", "setting": "dose: 250.0 mg/kg/injection, schedule: Q01DX011 (ip), vehicle: methylcellulose (MC)", "result": "68 % of control"}]}
{"smiles": "Clc1ncnc2c1ncn2C1CCCCC1", "values": [{"measurement": "T/C", "setting": "dose: 6.25 mg/kg/injection, schedule: Q01DX011 (ip), vehicle: carboxymethylcellulose (CMC)", "result": "91 % of control"}, {"measurement": "T/C", "setting": "dose: 12.5 mg/kg/injection, schedule: Q01DX011 (ip), vehicle: carboxymethylcellulose (CMC)", "result": "73 % of control"}, {"measurement": "T/C", "setting": "dose: 25.0 mg/kg/injection, schedule: Q01DX011 (ip), vehicle: carboxymethylcellulose (CMC)", "result": "81 % of control"}]}
{"smiles": "Cc1nc(Cl)c(C#N)c(C(F)(F)F)c1N", "values": [{"measurement": "T/C", "setting": "dose: 100.0 mg/kg/injection, schedule: Q01DX011 (ip), vehicle: carboxymethylcellulose (CMC)", "result": "153 % of control"}]}
{"smiles": "CCCCNc1ncnc2c1cnn2C", "values": [{"measurement": "T/C", "setting": "dose: 4.0 mg/kg/injection, schedule: Q01DX011 (ip), vehicle: carboxymethylcellulose (CMC)", "result": "96 % of control"}, {"measurement": "T/C", "setting": "dose: 8.0 mg/kg/injection, schedule: Q01DX011 (ip), vehicle: carboxymethylcellulose (CMC)", "result": "84 % of control"}, {"measurement": "T/C", "setting": "dose: 16.0 mg/kg/injection, schedule: Q01DX011 (ip), vehicle: carboxymethylcellulose (CMC)", "result": "52 % of control"}, {"measurement": "T/C", "setting": "dose: 31.25 mg/kg/injection, schedule: Q01DX011 (ip), vehicle: carboxymethylcellulose (CMC)", "result": "30 % of control"}, {"measurement": "T/C", "setting": "dose: 32.0 mg/kg/injection, schedule: Q01DX011 (ip), vehicle: carboxymethylcellulose (CMC)", "result": "20 % of control"}]}
{"smiles": "CCCn1cnc2c(SCc3ccccc3F)nc(N)nc21", "values": [{"measurement": "T/C", "setting": "dose: 3.1 mg/kg/injection, schedule: Q01DX011 (ip), vehicle: methylcellulose (MC)", "result": "22 % of control"}, {"measurement": "T/C", "setting": "dose: 6.25 mg/kg/injection, schedule: Q01DX011 (ip), vehicle: methylcellulose (MC)", "result": "11 % of control"}, {"measurement": "T/C", "setting": "[4]", "result": "1 % of control and 5 % of control"}]}
{"smiles": "CC(C)n1cc2c(N)ncnc2n1", "values": [{"measurement": "T/C", "setting": "[4]", "result": "55 % of control"}, {"measurement": "T/C", "setting": "dose: 12.5 mg/kg/injection, schedule: Q01DX011 (ip), vehicle: saline", "result": "74 % of control"}, {"measurement": "T/C", "setting": "[5]", "result": "18 % of control"}, {"measurement": "T/C", "setting": "dose: 25.0 mg/kg/injection, schedule: Q01DX011 (ip), vehicle: saline", "result": "14 % of control"}]}
{"smiles": "CS(=O)(=O)OCC(=O)N1CCN(C(=O)COS(C)(=O)=O)CC1", "values": [{"measurement": "T/C", "setting": "[5]", "result": "63 % of control"}, {"measurement": "T/C", "setting": "dose: 75.0 mg/kg/injection, schedule: Q01DX011 (ip), vehicle: methylcellulose (MC)", "result": "67 % of control"}]}
{"smiles": "OC(CN1CCCCC1)c1ccc(/C=C/c2ccc(Cl)cc2)cc1", "note": "(centres undefined)", "values": [{"measurement": "T/C", "setting": "dose: 118.0 micrograms/kg/injection, schedule: Q01DX011 (ip), vehicle: methylcellulose (MC)", "result": "40 % of control"}, {"measurement": "T/C", "setting": "dose: 237.0 micrograms/kg/injection, schedule: Q01DX011 (ip), vehicle: methylcellulose (MC)", "result": "55 % of control"}, {"measurement": "T/C", "setting": "dose: 475.0 micrograms/kg/injection, schedule: Q01DX011 (ip), vehicle: methylcellulose (MC)", "result": "49 % of control"}]}
{"smiles": "Cc1cccc(N=Nc2c(S(=O)(=O)O)cc3cc(NC(=O)Nc4ccc5c(O)c(N=Nc6ccc7cc(S(=O)(=O)O)ccc7c6)c(S(=O)(=O)O)cc5c4)ccc3c2O)c1", "values": [{"measurement": "T/C", "setting": "dose: 45.0 mg/kg/injection, schedule: Q01DX011 (ip), vehicle: carboxymethylcellulose (CMC)", "result": "81 % of control"}]}
{"smiles": "Cc1cc(C)c(/C=N/Nc2nc3c(c(=O)n(C)c(=O)n3C)n2C)c(C)c1", "values": [{"measurement": "T/C", "setting": "dose: 30.0 mg/kg/injection, schedule: Q01DX011 (ip), vehicle: carboxymethylcellulose (CMC)", "result": "68 % of control"}, {"measurement": "T/C", "setting": "dose: 60.0 mg/kg/injection, schedule: Q01DX011 (ip), vehicle: carboxymethylcellulose (CMC)", "result": "106 % of control"}]}
{"smiles": "C[C@]12C=CC(=O)C=C1CC[C@H]1[C@@H]3C[C@@H](O)[C@](O)(C(=O)CO)[C@@]3(C)C[C@H](O)[C@@]12F", "values": [{"measurement": "T/C", "setting": "dose: 1.5 mg/kg/injection, schedule: Q01DX011 (sc), vehicle: steriod suspending solution", "result": "98 % of control"}, {"measurement": "T/C", "setting": "dose: 3.0 mg/kg/injection, schedule: Q01DX011 (sc), vehicle: steriod suspending solution", "result": "79 % of control"}, {"measurement": "T/C", "setting": "dose: 3.12 mg/kg/injection, schedule: Q01DX011 (sc), vehicle: steriod suspending solution", "result": "77 % of control"}, {"measurement": "T/C", "setting": "dose: 6.0 mg/kg/injection, schedule: Q01DX011 (sc), vehicle: steriod suspending solution", "result": "41 % of control"}, {"measurement": "T/C", "setting": "dose: 12.5 mg/kg/injection, schedule: Q01DX011 (sc), vehicle: steriod suspending solution", "result": "32 % of control and 44 % of control and 53 % of control"}]}
